The values below come from US10471139B2, “Toll-like receptor agonists” (The University of Kansas, priority 2013, dated 2019).

SMILES strings stand for the structures. Like-named read-outs stand apart in the source and are kept apart here.

The experiment addresses T1, human TLR7 (Homo sapiens, UniProt Q9NYK1).
T1 construct: expressed in transfected cells; host or cells: HEK293 (HEK-Blue-7)
T1 sequence (Q9NYK1 27-1049): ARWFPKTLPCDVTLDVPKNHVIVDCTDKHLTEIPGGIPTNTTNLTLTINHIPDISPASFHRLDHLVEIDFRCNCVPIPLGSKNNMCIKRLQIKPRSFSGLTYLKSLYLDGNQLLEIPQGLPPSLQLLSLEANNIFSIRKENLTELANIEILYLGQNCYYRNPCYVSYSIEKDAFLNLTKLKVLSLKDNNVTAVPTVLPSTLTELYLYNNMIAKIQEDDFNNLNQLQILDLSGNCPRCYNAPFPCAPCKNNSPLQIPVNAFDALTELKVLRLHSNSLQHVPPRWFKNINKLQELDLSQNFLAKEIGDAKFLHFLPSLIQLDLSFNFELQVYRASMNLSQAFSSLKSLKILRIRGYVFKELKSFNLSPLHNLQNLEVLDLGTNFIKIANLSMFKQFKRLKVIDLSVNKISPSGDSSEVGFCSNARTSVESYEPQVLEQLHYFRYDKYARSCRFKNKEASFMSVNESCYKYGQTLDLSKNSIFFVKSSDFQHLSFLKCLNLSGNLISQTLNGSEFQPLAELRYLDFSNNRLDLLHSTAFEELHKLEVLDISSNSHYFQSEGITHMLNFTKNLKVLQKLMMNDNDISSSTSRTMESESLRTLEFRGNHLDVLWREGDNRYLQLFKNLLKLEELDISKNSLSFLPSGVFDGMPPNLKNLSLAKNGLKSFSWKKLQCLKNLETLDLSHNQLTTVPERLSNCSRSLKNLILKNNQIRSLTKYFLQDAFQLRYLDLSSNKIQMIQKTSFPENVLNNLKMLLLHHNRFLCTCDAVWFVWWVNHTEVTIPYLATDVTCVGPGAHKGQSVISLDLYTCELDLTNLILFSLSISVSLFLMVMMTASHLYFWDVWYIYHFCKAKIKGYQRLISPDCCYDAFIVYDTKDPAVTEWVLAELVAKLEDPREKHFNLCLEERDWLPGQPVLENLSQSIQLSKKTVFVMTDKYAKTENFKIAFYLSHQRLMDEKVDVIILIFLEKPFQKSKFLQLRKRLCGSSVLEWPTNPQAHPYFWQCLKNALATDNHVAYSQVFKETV
The experiment can be described thus: Human TLR7 reporter gene assay (NF-κB induction), HEK-Blue-7 cells. It counts as cell-based. (In general: A reporter such as luciferase makes a cellular process visible.)

Setting [1] is: human TLR7-specific reporter gene assay, Inactive = no activity up to 500 μg/mL.
Where [2] appears, read: human TLR7-specific reporter gene assay, Inactive = no activity up to 500 μg/mL, read-out: hTLR7-agonistic Activity (EC50).

Text: Human TLR-7/-8 Reporter Gene Assays (NF-κB Induction).
The induction of NF-κB was quantified using HEK-Blue-7 (hTLR7-specific) and HEK-Blue-8 (hTLR8-specific) cells. HEK293 cells stably co-transfected with human TLR7 or human TLR8, MD2, and secreted alkaline phosphatase (sAP), were maintained in HEK-Blue™ Selection medium containing zeocin and normocin. Stable expression of secreted alkaline phosphatase (sAP) under control of NF-κB/AP-1 promoters is inducible by appropriate TLR agonists, and extracellular sAP in the supernatant is proportional to NF-κB induction.
HEK293 cells stably co-transfected with the appropriate hTLR (or NOD) and secreted alkaline phosphatase (sAP) were maintained in HEK-Blue™ Selection medium. Stable expression of secreted alkaline phosphatase (sAP) under control of NF-κB/AP-1 promoters is inducible by appropriate TLR/NOD agonists, and extracellular sAP in the supernatant is proportional to NF-κB induction.

Take `CCCCNc1nccc2c1nc(CCCC)n2Cc1ccccc1` [Compound 11a, 1-Benzyl-N,2-dibutyl-1H-imidazo[4,5-c]pyridin-4-amine]: the “hTLR7-agonistic Activity (EC50)” value under setting [1] is on record as “Inactive”.
On the same count and under the same terms, to `CCCCc1nc2c(NCc3ccccc3)nccc2n1Cc1ccccc1` [Compound 11b, N,1-Dibenzyl-2-butyl-1H-imidazo[4,5-c]pyridin-4-amine] belongs “Inactive”.
`CCCCc1nc2c(N)nc(Cl)cc2n1Cc1ccccc1` [Compound 17, 1-Benzyl-2-butyl-6-chloro-1H-imidazo[4,5-c]pyridin-4-amine]: the “hTLR7-agonistic Activity (EC50)” value under setting [1] is “Inactive”. The “TLR7-specific agonistic activity EC50” value (primary screen) is “inactive”.
On to `CCCCc1nc2c(N)nc(N)cc2n1Cc1ccccc1` [Compound 19a, 1-Benzyl-2-butyl-1H-imidazo[4,5-c]pyridine-4,6-diamine], for which the concentration giving a half-maximal response (EC50) under setting [2] was determined as 1250 nM.
Turning to `CCCCNc1cc2c(nc(CCCC)n2Cc2ccccc2)c(N)n1` [Compound 19b, 1-Benzyl-N^6,2-dibutyl-1H-imidazo[4,5-c]pyridine-4,6-diamine], the 50% effective concentration (EC50) under setting [2] worked out at 340 nM.
For `CCCCCCCNc1cc2c(nc(CCCC)n2Cc2ccccc2)c(N)n1` [Compound 19c, 1-Benzyl-2-butyl-N^6-heptyl-1H-imidazo[4,5-c]pyridine-4,6-diamine], the 50% effective concentration (EC50) under setting [2] was 760 nM.
Turning to `CCCCc1nc2c(N)nc(Nc3ccccc3)cc2n1Cc1ccccc1` [Compound 19e, 1-Benzyl-2-butyl-N^6-phenyl-1H-imidazo[4,5-c]pyridine-4,6-diamine], under setting [2], the EC50 turned out to be 1720 nM.
For the molecule `CCCCc1nc2c(N)nc(NCc3ccccc3)cc2n1Cc1ccccc1` [Compound 19f, N^6,1-Dibenzyl-2-butyl-1H-imidazo[4,5-c]pyridine-4,6-diamine], the “TLR7-agonistic potency relative to compound 5” value (fold over compound 5) is reported as roughly 7.6. Also, under setting [2], the concentration giving a half-maximal response (EC50) amounted to 210 nM.
In the case of `CCCCc1nc2c(N)nc(NCc3cccc(OC)c3)cc2n1Cc1ccccc1` [Compound 19h, 1-Benzyl-2-butyl-N^6-(3-methoxybenzyl)-1H-imidazo[4,5-c]pyridine-4,6-diamine], the half-maximal effective concentration (EC50) under setting [2] was 610 nM.
On to `CCCCc1nc2c(N)nc(NCc3ccc(C(F)(F)F)cc3)cc2n1Cc1ccccc1` [Compound 19i, 1-Benzyl-2-butyl-N^6-(4-(trifluoromethyl)benzyl)-1H-imidazo[4,5-c]pyridine-4,6-diamine], for which, under setting [2], the EC50 is 1040 nM.
The same measure, in the same setting: the figure for `CCCCc1nc2c(N)nc(NCc3ccc(Cl)cc3)cc2n1Cc1ccccc1` [Compound 19j, 1-Benzyl-2-butyl-N^6-(4-chlorobenzyl)-1H-imidazo[4,5-c]pyridine-4,6-diamine] is 640 nM.
In the case of `CCCCc1nc2c(N)nc(NCc3ccncc3)cc2n1Cc1ccccc1` [Compound 19l, 1-Benzyl-2-butyl-N^6-(pyridin-4-ylmethyl)-1H-imidazo[4,5-c]pyridine-4,6-diamine], under setting [2], the half-maximal effective concentration (EC50) turned out to be 250 nM.
For `CCCCc1nc2c(N)nc(NCc3cccc4ccccc34)cc2n1Cc1ccccc1` [Compound 19n, 1-Benzyl-2-butyl-N^6-(naphthalen-1-ylmethyl)-1H-imidazo[4,5-c]pyridine-4,6-diamine], the “hTLR7-agonistic Activity (EC50)” value under setting [1] is “Inactive”. Also, the “TLR7-specific agonistic activity EC50” value (primary screen) is “quiescent”.
Consider `CCCCc1nc2c(N)nc(NCc3ccc(-c4ccccc4)cc3)cc2n1Cc1ccccc1` [Compound 19o, N^6-([1,1′-Biphenyl]-4-ylmethyl)-1-benzyl-2-butyl-1H-imidazo[4,5-c]pyridine-4,6-diamine], for which, under setting [2], the EC50 is 1090 nM. The “TLR7-specific agonistic activity EC50” value (primary screen) is “active”.
Turning to `CCCCc1nc2c(N)nc(NCc3cccc(CN)c3)cc2n1Cc1ccccc1` [Compound 19q, N^6-(3-(aminomethyl)benzyl)-1-benzyl-2-butyl-1H-imidazo[4,5-c]pyridine-4,6-diamine], the EC50 (primary screen, read-out: TLR7-specific agonistic activity EC50) amounted to 370 nM.
As for `CCCCc1nc2c(N)nc(NCc3ccc(CNc4cc5c(nc(CCCC)n5Cc5ccccc5)c(N)n4)cc3)cc2n1Cc1ccccc1` [Compound 19r, N^6,N^6′-(1,4-phenylenebis(methylene))bis(1-benzyl-2-butyl-1H-imidazo[4,5-c]pyridine-4,6-diamine)], the EC50 under setting [2] worked out at 1080 nM.

As a reminder, the EC50 is the midpoint of the concentration-response curve.
